This is an account of results in PMC6017805 (2018).

Common to all, as to assay: UV-Vis titration (D/Δεapp vs D plot)
Common to all, as to conditions: phosphate buffer 50 mM pH 7.4 (Figure 2; methods say 100 mM), 25 °C, 4a 50 μM

Assay [1] has as its system AT Box [Poly(dTATAAT)-Poly(dATATTA)] (DNA, polymer) TATAAT/ATTATA.
The subject of assay [2] is [Poly(dA)-Poly(dT)] (DNA, polymer) A/T.
Assay [3] relates to [Poly(dG)-Poly(dC)] (DNA, polymer) G/C.
The test system of assay [4] is GC Box [Poly(dGGGCGG)-Poly(dCCCGCC)] (DNA, polymer) GGGCGG/CCGCCC.

In the case of `N[C@@H](CCCCN1C(=O)c2cccc3cccc(c23)C1=O)C(=O)NCCNC(=O)[C@@H](N)CCCCN1C(=O)c2cccc3cccc(c23)C1=O`, the Kb in assay [1] stood at 9710 M⁻¹; in assay [2], 9080 M⁻¹; in assay [3] it was 1150 M⁻¹; in assay [4] it was 1910 M⁻¹.
